Laboratory results published in patent US20040009904A1, “APL immunoreactive peptides, conjugates thereof and methods of treatment for aPL antibody-mediated pathologies” (priority 1995, published 2004).
Bridge positions count the residues as written; N and C are the ends. Square brackets hold non-standard residues; d marks the D form. Peptide text beside a SMILES is read from it. NMeL = CN[C@@H](CC(C)C)C(=O)O; Phg = N[C@H](C(=O)O)c1ccccc1; NMeV = CN[C@H](C(=O)O)C(C)C; Aib = CC(C)(N)C(=O)O; Sar = CNCC(=O)O

target: ACA-6501; assay: Competitive binding peptide ACA ELISA, cardiolipin/β2-GPI-coated plates; parameters: species or system human; conditions: Optimization of Peptide 3G3; inf = no 50% inhibition
Method: A variation of this assay uses microtitration plates coated with human β2-glycoprotein I/cardiolipin (β2-GPI/CL) instead of tetravalent peptide and tests the ability of monomeric peptides to block the binding of aPL antibody to the epitope(s) on β2-GPI/CL. In this assay, IgG-depleted human serum at an optimized concentration is used as a source of β2-GPI. The monomeric peptides at several concentrations are incubated with an optimized concentration of aPL antibody in a manner analogous to the assay which employs tetravalent peptide as a plate substrate. Following the incubation of aPL/peptide in (β2-GPI/CL) plates, antibody binding and the peptide concentration required for 50% inhibition is determined at half-maximal absorbance as in the tetravalent assay.
Peptide sequences for all five peptides immediately follow the table. All were tested using the competitive binding peptide ACA ELISA using CL/β2-GPI plates as described herein.
(B) Immulon I® 96-well, flat-bottom, polystyrene microtitration plates (Dynatech Laboratories, Inc., Chantilly, Va.) were coated with 30 μL/well of cardiolipin (CL, 50 μg; Sigma Chemical Co., St. Louis, Mo.) in ethanol. Two control wells received 30 μL ethanol only. After overnight evaporation at 4° C., each well was blocked with 200 μL of 5% (w/v) fish gelatin in PBS for 2 hours at RT.
During this incubation, variable amounts of each of six peptides were mixed with 22 μL ACA-6501 serum diluted with 3% fish gelatin in 1:1 TBS/PBS (final dilution of 1:400) in a final volume of 220 μL using Eppendorf microcentrifuge tubes. Specifically, in tube #1 were mixed 181.3 μL of 3% fish gelatin in TBS-PBS, 16.7 μL of peptide stock solution plus 22 μL of ACA-6501 serum diluted 40 times in 3% fish gelatin/TBS-PBS. Stock solutions ranged from 450-800 μg/mL for peptides #951 (diserine non-cyclized negative control), #952 (a lot of LJP 690), and thioethers CCTE-3G3, CHTE-3G3, HCTE-3G3 and HHTE-3G3. To tube #2 the following were added: 148 μL fish gelatin/TBS-PBS, […] of peptide stock solution, plus 22 μL of 40 times diluted ACA-6501 serum. Tube #3 contained 48 μL fish gelatin/TBS-PBS, […] of peptide stock solution, plus 22 μL of 40 times diluted ACA-6501 serum. The control tube #4 received 396 μL fish gelatin/TBS-PBS and 44 μL of 40 times diluted ACA-6501 serum (no peptide). Each of the tubes incubated for approximately 1 hour at RT.
The CL/β2-GPI microtitration plate was washed 5 times with TBS and 100 μL aliquots in duplicate from Eppendorf tubes #1, 2, 3, and 4 containing the antibody-peptide (or no peptide mixtures) were added to the wells. A volume of 100 μL from tube #4 was added to the duplicate control wells containing no cardiolipin. The microtitration plate was incubated for 1 hour at RT with agitation at 40 rpm in an orbital shaker (American Scientific, Rotator V), washed 5 times with TBS and then 100 μL of 1:1000 goat anti-human IgG alkaline phosphatase conjugate (Zymed, Cat No. 62-8422) in 0.5% (w/v) BSA-TBS was added. Following incubation for 1 hour at RT, the microtitration plate was again washed 5 times with TBS and the colorimetric enzyme detection developed by adding 100 μL of PMPP solution (7.8 g phenolphthalein monophosphate plus 69.5 g of 2-amino-2-methyl-1-propanol in 100 mL water stock solution diluted 1:26 with water). After 21 minutes, the reaction was stopped by adding 50 μL of 0.2 M Na2HPO4 (Mallinckrodt) to each well. Absorbance at 550 nm was read in a microplate reader (Bio-Tek Instruments, Model EL 311). The amount of peptide that inhibited ACA-6501 binding by 50%, the IC50, was calculated from the graph at the intersection of half-maximal absorbance with amount of peptide added.

Row | SMILES | with ACA 6501 150 ug/mL
1 | CC(C)C[C@@H]1NC(=O)[C@H](c2ccccc2)NC(=O)CNC(=O)[C@H](CC(C)C)NC(=O)[C@H](C(C)C)NC(=O)CNC(=O)[C@H](CC(C)C)NC(=O)[C@@H](N)CSSC[C@@H](C(=O)O)NC1=O [C L G V L Gp G L C] (H-CLGVLG[Phg]LC-OH; disulfide 1-9) | 230 µg/mL
2 | CC(C)C[C@@H]1NC(=O)[C@H](CCCCN)NC(=O)[C@@H]2CCCN2C(=O)[C@H](CC(C)C)NC(=O)[C@H](C(C)C)NC(=O)CNC(=O)[C@H](CC(C)C)NC(=O)[C@@H](N)CSSC[C@@H](C(=O)O)NC1=O [C L G V L P K L C] (H-CLGVLPKLC-OH; disulfide 1-9) | 350 µg/mL
3 | CC(C)C[C@@H]1NC(=O)[C@H](CCCCN)NC(=O)C(C)(C)NC(=O)[C@H](CC(C)C)NC(=O)[C@H](C(C)C)NC(=O)CNC(=O)[C@H](CC(C)C)NC(=O)[C@@H](N)CSSC[C@@H](C(=O)O)NC1=O [C L G V L aiB K L C] (H-CLGVL[Aib]KLC-OH; disulfide 1-9) | 110 µg/mL
4 | CC(C)C[C@@H]1NC(=O)[C@H](CCCCN)NC(=O)[C@@H](C)NC(=O)[C@H](CC(C)C)NC(=O)[C@H](C(C)C)NC(=O)CNC(=O)[C@H](CC(C)C)NC(=O)[C@@H](N)CSSC[C@@H](C(=O)O)NC1=O [C L G V L dA K L C] (H-CLGVL[dA]KLC-OH; disulfide 1-9) | 140 µg/mL
5 | CC(C)C[C@@H]1NC(=O)[C@H](CCCCN)NC(=O)CN(C)C(=O)[C@H](CC(C)C)NC(=O)[C@H](C(C)C)NC(=O)CNC(=O)[C@H](CC(C)C)NC(=O)[C@@H](N)CSSC[C@@H](C(=O)O)NC1=O [C L G V L nG K L C] (H-CLGVL[Sar]KLC-OH; disulfide 1-9) | 550 µg/mL
6 | CC(C)C[C@@H]1NC(=O)[C@H](CCCCN)NC(=O)[C@H](c2ccccc2)NC(=O)[C@H](CC(C)C)NC(=O)[C@H](C(C)C)NC(=O)CNC(=O)[C@H](CC(C)C)NC(=O)[C@@H](N)CSSC[C@@H](C(=O)O)NC1=O [C L G V Lp G K L C] (H-CLGVL[Phg]KLC-OH; disulfide 1-9) | 30 µg/mL
7 | CC(C)C[C@@H]1NC(=O)[C@H](CCCCN)NC(=O)CNC(=O)[C@@H](CC(C)C)NC(=O)[C@H](C(C)C)NC(=O)CNC(=O)[C@H](CC(C)C)NC(=O)[C@@H](N)CSSC[C@@H](C(=O)O)NC1=O [C L G V dL G K L C] (H-CLGV[dL]GKLC-OH; disulfide 1-9) | 230 µg/mL
8 | CC(C)C[C@@H]1NC(=O)[C@H](CCCCN)NC(=O)CNC(=O)[C@H](CC(C)C)N(C)C(=O)[C@H](C(C)C)NC(=O)CNC(=O)[C@H](CC(C)C)NC(=O)[C@@H](N)CSSC[C@@H](C(=O)O)NC1=O [C L G V nL G K L C] (H-CLGV[NMeL]GKLC-OH; disulfide 1-9) | 180 µg/mL
9 | CC(C)C[C@@H]1NC(=O)[C@H](CCCCN)NC(=O)CNC(=O)[C@H](c2ccccc2)NC(=O)[C@H](C(C)C)NC(=O)CNC(=O)[C@H](CC(C)C)NC(=O)[C@@H](N)CSSC[C@@H](C(=O)O)NC1=O [C L G Vp G G K L C] (H-CLGV[Phg]GKLC-OH; disulfide 1-9) | 35 µg/mL
10 | CC(C)C[C@@H]1NC(=O)[C@H](CCCCN)NC(=O)CNC(=O)[C@H](CC(C)C)NC(=O)C(C)(C)NC(=O)CNC(=O)[C@H](CC(C)C)NC(=O)[C@@H](N)CSSC[C@@H](C(=O)O)NC1=O [C L G aiB L G K L C] (H-CLG[Aib]LGKLC-OH; disulfide 1-9) | 110 µg/mL
11 | CC(C)C[C@@H]1NC(=O)[C@H](CCCCN)NC(=O)CNC(=O)[C@H](CC(C)C)NC(=O)[C@@H](C(C)C)NC(=O)CNC(=O)[C@H](CC(C)C)NC(=O)[C@@H](N)CSSC[C@@H](C(=O)O)NC1=O [C L G dV L G K L C] (H-CLG[dV]LGKLC-OH; disulfide 1-9) | 260 µg/mL
12 | CC(C)C[C@@H]1NC(=O)[C@H](CCCCN)NC(=O)CNC(=O)[C@H](CC(C)C)NC(=O)[C@H](C(C)C)N(C)C(=O)CNC(=O)[C@H](CC(C)C)NC(=O)[C@@H](N)CSSC[C@@H](C(=O)O)NC1=O [C L G nV L G K L C] (H-CLG[NMeV]LGKLC-OH; disulfide 1-9) | 220 µg/mL
13 | CC(C)C[C@@H]1NC(=O)[C@H](CCCCN)NC(=O)CNC(=O)[C@H](CC(C)C)NC(=O)[C@H](c2ccccc2)NC(=O)CNC(=O)[C@H](CC(C)C)NC(=O)[C@@H](N)CSSC[C@@H](C(=O)O)NC1=O [C L G pG L G K L C] (H-CLG[Phg]LGKLC-OH; disulfide 1-9) | 70 µg/mL
14 | CC(C)C[C@@H]1NC(=O)[C@H](CCCCN)NC(=O)CNC(=O)[C@H](CC(C)C)NC(=O)[C@H](C(C)C)NC(=O)[C@@H]2CCCN2C(=O)[C@H](CC(C)C)NC(=O)[C@@H](N)CSSC[C@@H](C(=O)O)NC1=O [C L P V L G K L C] (H-CLPVLGKLC-OH; disulfide 1-9) | 340 µg/mL
15 | CC(C)C[C@@H]1NC(=O)[C@H](CCCCN)NC(=O)CNC(=O)[C@H](CC(C)C)NC(=O)[C@H](C(C)C)NC(=O)C(C)(C)NC(=O)[C@H](CC(C)C)NC(=O)[C@@H](N)CSSC[C@@H](C(=O)O)NC1=O [C L aiB V L G K L C] (H-CL[Aib]VLGKLC-OH; disulfide 1-9) | 80 µg/mL
16 | CC(C)C[C@@H]1NC(=O)[C@H](CCCCN)NC(=O)CNC(=O)[C@H](CC(C)C)NC(=O)[C@H](C(C)C)NC(=O)CN(C)C(=O)[C@H](CC(C)C)NC(=O)[C@@H](N)CSSC[C@@H](C(=O)O)NC1=O [C L nG V L G K L C] (H-CL[Sar]VLGKLC-OH; disulfide 1-9) | 70 µg/mL
17 | CC(C)C[C@@H]1NC(=O)[C@H](CCCCN)NC(=O)CNC(=O)[C@H](CC(C)C)NC(=O)[C@H](C(C)C)NC(=O)[C@H](c2ccccc2)NC(=O)[C@H](CC(C)C)NC(=O)[C@@H](N)CSSC[C@@H](C(=O)O)NC1=O [C L pG V L G K L C] (H-CL[Phg]VLGKLC-OH; disulfide 1-9) | 70 µg/mL
18 | CC(C)C[C@@H]1NC(=O)[C@H](CCCCN)NC(=O)CNC(=O)[C@H](CC(C)C)NC(=O)[C@H](C(C)C)NC(=O)CNC(=O)[C@@H]2CCCN2C(=O)[C@@H](N)CSSC[C@@H](C(=O)O)NC1=O [C P G V L G K L C] (H-CPGVLGKLC-OH; disulfide 1-9) | 160 µg/mL
19 | CC(C)C[C@@H]1NC(=O)[C@H](CCCCN)NC(=O)CNC(=O)[C@H](CC(C)C)NC(=O)[C@H](C(C)C)NC(=O)CNC(=O)[C@H](C(C)C)NC(=O)[C@@H](N)CSSC[C@@H](C(=O)O)NC1=O [C V G V L G K L C] (H-CVGVLGKLC-OH; disulfide 1-9) | 130 µg/mL
20 | CC(C)C[C@@H]1NC(=O)[C@H](CCCCN)NC(=O)CNC(=O)[C@H](CC(C)C)NC(=O)[C@H](C(C)C)NC(=O)CNC(=O)C(C)(C)NC(=O)[C@@H](N)CSSC[C@@H](C(=O)O)NC1=O [C aiB G V L G K L C] (H-C[Aib]GVLGKLC-OH; disulfide 1-9) | 370 µg/mL
21 | CC(C)C[C@@H]1NC(=O)[C@H](CCCCN)NC(=O)CNC(=O)[C@H](CC(C)C)NC(=O)[C@H](C(C)C)NC(=O)CNC(=O)[C@H](c2ccccc2)NC(=O)[C@@H](N)CSSC[C@@H](C(=O)O)NC1=O [C pG G V L G K L C] (H-C[Phg]GVLGKLC-OH; disulfide 1-9) | 130 µg/mL
22 | CC(C)C[C@@H]1NC(=O)[C@H](CCCCN)NC(=O)CNC(=O)[C@H](CC(C)C)NC(=O)[C@H](C(C)C)NC(=O)CNC(=O)[C@@H](CC(C)C)NC(=O)[C@@H](N)CSSC[C@@H](C(=O)O)NC1=O [CdL G V L G K L C] (H-C[dL]GVLGKLC-OH; disulfide 1-9) | 180 µg/mL
